Drawing on patent US20170037028A1 (BAYER PHARMA AKTIENGESELLSCHAFT, priority 2013, published 2017), this text covers IC50 for 18 compounds.

The term IC50 denotes the midpoint of a concentration-inhibition curve.

The target of this assay is T1, GLUT1 (Homo sapiens, UniProt P11166).
T1 sequence (P11166 1-492): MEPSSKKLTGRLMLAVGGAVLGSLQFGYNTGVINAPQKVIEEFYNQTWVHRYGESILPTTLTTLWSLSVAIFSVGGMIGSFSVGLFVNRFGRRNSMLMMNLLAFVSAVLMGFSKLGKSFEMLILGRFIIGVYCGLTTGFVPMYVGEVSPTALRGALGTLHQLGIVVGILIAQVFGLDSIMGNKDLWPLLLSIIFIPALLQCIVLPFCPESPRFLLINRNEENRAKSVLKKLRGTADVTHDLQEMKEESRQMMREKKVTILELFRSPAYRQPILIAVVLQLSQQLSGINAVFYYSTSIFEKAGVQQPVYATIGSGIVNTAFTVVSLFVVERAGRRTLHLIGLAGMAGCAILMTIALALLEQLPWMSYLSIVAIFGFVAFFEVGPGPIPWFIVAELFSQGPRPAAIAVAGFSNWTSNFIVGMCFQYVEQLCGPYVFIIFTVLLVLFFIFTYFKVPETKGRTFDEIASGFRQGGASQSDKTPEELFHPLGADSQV
Nature of the assay: Indirect measurement of GLUT1 activity by quantification of intracellular ATP levels (glucose induced ATP increase). It is filed as cell-based. Also on record: endogenous in cells; host or cells: DLD1 or CHO-K1. The note with it: read-out: IC50 regarding glucose induced ATP increase (GLUT1 inhibition). An outline of the steps:
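DLD1 or CHO-K1 cells were starved overnight in glucose-free medium with 1% FCS, then combined with an oxidative phosphorylation inhibitor. GLUT1 activity was read as glucose-induced ATP increase, GLUT2 as fructose-induced. Intracellular ATP was quantified by CellTiter-Glo luminescence.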
As to `Cc1c(NC(=O)c2cc(C(N)=O)nc3cc(F)ccc23)c(C(F)(F)F)nn1Cc1ccc(F)cc1C#N` [Example 1658], the IC50 is 3.2 nM.

On to `Cc1nn(Cc2c(F)cc(C#N)cc2F)c(C)c1NC(=O)c1cc(C(N)=O)nc2ccccc12` [Example 391, N^4-[1-(4-cyano-2,6-difluorobenzyl)-3,5-dimethyl-1H-pyrazol-4-yl]quinoline-2,4-dicarboxamide], for which the IC50 was determined as 7 nM.

On to `Cc1nn(Cc2ccc(F)cc2)c(C)c1NC(=O)c1cc(C(F)(F)F)nc2ccc(C(=O)O)cc12` [Example 1267], for which the IC50 is 2710 nM.

In the case of `COc1c(C)nc2ccccc2c1C(=O)Nc1c(C)nn(Cc2ccc(F)cc2)c1C` [Example 95, N-[1-(4-fluorobenzyl)-3,5-dimethyl-1H-pyrazol-4-yl]-3-methoxy-2-methylquinoline-4-carboxamide], the IC50 worked out at 309 nM.

On to `Cc1nn(Cc2ccc(C(=O)Nc3ccccn3)cc2)c(C)c1NC(=O)c1cc(C(F)(F)F)nc2ccc(Br)cc12` [Example 1064], for which the IC50 is 18.6 nM.

As for `Cc1c(NC(=O)c2cc(C(N)=O)nc3ccccc23)c(C(F)(F)F)nn1Cc1ccc(F)c(F)c1` [Example 128, N^4-[1-(3,4-difluorobenzyl)-5-methyl-3-(trifluoromethyl)-1H-pyrazol-4-yl]quinoline-2,4-dicarboxamide], the IC50 worked out at 3.3 nM.

For `Cc1ccc2nc(C)cc(C(=O)Nc3c(C)nn(Cc4cccc(F)c4)c3C)c2c1` [Example 1236], the IC50 is 1290 nM.

`Cc1nn(Cc2ccc(F)cc2)c(C)c1NC(=O)c1cc(C(F)(F)F)nc2ccc(N)cc12` [Example 1117]: the IC50 stood at 59.7 nM.

Turning to `Cc1nn(Cc2ccc(C(=O)NCCCCO)cc2)c(C)c1NC(=O)c1cc(C(F)(F)F)nc2ccc(Br)cc12` [Example 1083], the IC50 came to 29.4 nM.

On to `Cc1nn(Cc2ccc(S(C)(=O)=O)cc2)c(C)c1NC(=O)c1cc(C(N)=O)nc2ccccc12` [Example 224, N^4-{3,5-dimethyl-1-[4-(methylsulfonyl)benzyl]-1H-pyrazol-4-yl}quinoline-2,4-dicarboxamide], for which the IC50 amounted to 11.2 nM.

`Cc1nn(Cc2noc(C(=O)N(C)C)n2)c(C)c1NC(=O)c1cc(C(F)(F)F)nc2ccc(Br)cc12` [Example 1522]: the IC50 worked out at 600 nM.

Regarding `CCc1nn(Cc2ccc(F)cc2)c(CC)c1NC(=O)c1cc(C(N)=O)nc2c(F)cccc12` [Example 1384], the IC50 turned out to be 425 nM.

`Cc1nn(Cc2nc(C3CC3)no2)c(C)c1NC(=O)c1cc(C(N)=O)nc2ccccc12` [Example 1501]: the IC50 is 73.7 nM.

In the case of `COc1ccc(Cn2nc(C)c(NC(=O)c3cc(C)nc4ccc(C)cc34)c2C)cc1` [Example 4, N-[1-(4-methoxybenzyl)-3,5-dimethyl-1H-pyrazol-4-yl]-2,6-dimethylquinoline-4-carboxamide], the IC50 was 3.8 nM.

Turning to `Cc1ccc2c(C(=O)Nc3c(C(F)(F)F)nn(Cc4ccc(C#N)cc4)c3C)cc(C(N)=O)nc2c1` [Example 1610], the IC50 worked out at 8.4 nM.

`Cc1nn(CCCc2ccc(C#N)cc2)c(C)c1NC(=O)c1cc(C(N)=O)nc2ccccc12` [Example 347, N^4-{1-[3-(4-cyanophenyl)propyl]-3,5-dimethyl-1H-pyrazol-4-yl}quinoline-2,4-dicarboxamide]: the IC50 is 2.2 nM.

On to `Cc1cc(Cn2nc(C)c(NC(=O)c3cc(C(N)=O)nc4cc(F)c(Cl)cc34)c2C)no1` [Example 412, 6-chloro-N^4-{3,5-dimethyl-1-[(5-methyl-1,2-oxazol-3-yl)methyl]-1H-pyrazol-4-yl}-7-fluoroquinoline-2,4-dicarboxamide], for which the IC50 was 2.1 nM.

Regarding `Cc1c(NC(=O)c2cc(C(N)=O)nc3cccc(F)c23)c(C(F)(F)F)nn1Cc1ncc(C#N)cn1` [Example 424, N^4-{1-[(5-cyanopyrimidin-2-yl)methyl]-5-methyl-3-(trifluoromethyl)-1H-pyrazol-4-yl}-5-fluoroquinoline-2,4-dicarboxamide], the half-inhibitory concentration (IC50) came to 6.7 nM.
